Entries after “also recorded” stand apart in the source; their conditions may differ. Where only a bound is given, the exact number is not on record here.

We go through 7 compounds from patent US7973075B2, “Kainate receptor-selective epimeric analogs of dysiherbaine” (priority 2007, dated 2011).

One test addresses T1, GluR6a (Rattus norvegicus, UniProt P42260).
T1 construct: expressed in transfected cells; host or cells: HEK-293-T/17
Briefly: Whole-cell patch clamp recordings, transfected HEK-293-T/17 cells, Example 2. The test is classed as cell-based. The following applies: for agonist activity: analog-evoked currents from GluR6a receptors (words): 1 s test application of the analog at a high concentration (50-100 μM). As for the experimental part:
(§1) Cell Culture and Electrophysiology. HEK-293-T/17 cells were maintained in Dulbecco's modified Eagle's medium (DMEM) supplemented with 100 μg/mL penicillin, 100 μg/mL streptomycin, and 10% heat inactivated fetal bovine serum. One day before transfection, HEK-T/17 cells were plated at low density on glass coverslips coated with 100 μg/ml poly-D-lysine and 100 μg/ml collagen. Cells were transfected with receptor cDNAs ([…]) in combination with enhanced green fluorescent protein (eGFP) cDNA for visualization of transfected cells. Transfections were carried out with Fugene6 (Roche Applied Science) according to the manufacturer's protocol and used 2-3 days following transfection. Internal solution consisted of 110 mM CsF, 30 mM CsCl, 4 mM NaCl, 0.5 mM CaCl2, 10 mM HEPES, and 5 mM EGTA, and was adjusted to pH=7.3 with CsOH. The external solution contained 150 mM NaCl, 2.8 mM KCI, 2 mM CaCl2, 1 mM MgCl2, and 10 mM HEPES, adjusted to pH=7.3 with NaOH. Patch electrodes from thick-walled borosilicate glass (Warner Instruments, Hamden, Conn.) were pulled to a final resistance of 1.5 to 2.5 MO after fire polishing. […] To determine the pre-desensitization IC50 of selected analogs, several control glutamate (10 mM) applications were followed by a 2.5 minute application of various concentrations of 8-deoxy-neoDH, 9-deoxy-neoDH, or MSVIII-19, after which the analogs were co-applied with glutamate. A similar protocol was followed to measure the recovery of glutamate-evoked currents, with the exception that the analogs were not co-applied with glutamate. Whole cell patch clamp recordings were carried out using an Axopatch 200B amplifier (Axon Instruments). Data were analyzed with Origin 7.5 (OriginLab Corp.), and Prism4 (GraphPad Software Inc.); inhibition-response curves were plotted and fit with a one-site competition curve constrained to fixed minima (0) and maxima (100).
(§2) The pharmacological activities of the C2/C4 epimers were determined in patch-clamp assays with GluR5-2a or GluR6a KARs as well as GluR4(i) AMPA receptors.
(§3) 30 μM 2,4-epi-neoDH reduced glutamate-induced currents from GluR5-2a receptors by −70% while the same concentration reduced glutamate-induced currents from GluR6a receptors by −30% (FIG. 13A). […] We noted that the data derived from recording of the GluR5-2a receptor was poorly fit by the single component logistic curve, particularly at the lower concentrations. This inconsistency may arise from inter-subunit or inter-dimer cooperativity in the inhibitory activity or may be an apparent artifact resulting from run-down of the GluR5-2a receptor currents.
Background: The patch-clamp technique gives a direct electrical read-out from membranes.

The next test deals with T2, GluR4(i) AMPA receptors (Rattus norvegicus, UniProt P19493).
T2 construct: expressed in transfected cells; host or cells: HEK-293-T/17
The test is described as above. The test is classed as cell-based. The settings on record: 300 μM analog. The procedure: as §1, §2, §3

The next test relates to mice. Briefly: Seizure (convulsant) activity after i.c.v. injection. Format: in vivo.
In the next test the target is T3, GluR5 (Rattus norvegicus, UniProt P22756).
T3 construct: expressed in transfected cells; HEK 293 (patch clamp)
The experiment in a line: Patch-clamp recordings from transfected HEK 293 cells, Example 1. The test is classed as cell-based. The settings on record: Example 1, FIG. 3 and 5. As for the experimental part: Non-specific binding was defined in the presence of 1 mM glutamate. The effect of these analogs on electrophysiology was assessed as follows. HEK 293 cells were transfected with receptor cDNAs in combination with eGFP cDNA. Patch-clamp recordings from transfected cells were made 24-72 hours later using a fast application system described previously (Swanson et al., NEURON 1997; 19:913-26). (See FIG. 3.)
The effect of these analogs on electrophysiology also was assessed as described above. […] The results further indicate that the C8 and C9 substituents are necessary for binding to all AMPA and KAR subunits except for GluR5 subunits. The C9 polar group must be present and in the correct spatial orientation for high-affinity GluR5 subunit binding. Inter-domain contacts mediated by residue 721S are critical determinants of binding affinity. The epimer analog 9-deoxy-neoDH mimics the binding affinity of the di-deoxy analog MSVIII-19, but acts as an agonist rather than an antagonist.

The target in a further test is T4, GluR5-2b (Rattus norvegicus, UniProt P22756).
T4 construct: expressed in transfected cells; host or cells: HEK-293-T/17
The experiment in a line: Radioligand binding ([3H]kainate displacement), Example 2. The procedure:
Radioligand binding. Membrane preparations from HEK-293-T/17 cells were prepared and used in radioligand binding assays as described previously (Sanders et al., 2005). Unlabeled analogs were used to displace [3H]kainate (10-20 nM, PerkinElmer Life and Analytical Sciences, Boston, Mass.) or [3H]AMPA (20 nM, PerkinElmer Life and Analytical Sciences, Boston, Mass.) from KARs and AMPARs, respectively. Nonspecific binding was determined in the presence of 1 mM glutamate. After 1 hour incubation at 4° C., samples were harvested by rapid filtration onto Whatman GF/C membranes. Upon addition of scintillation fluid, membranes were incubated for 1 hour at room temperature. A Beckman LS5000TD scintillation counter was used for quantification (Beckman Coulter Inc., Fullerton, Calif.). Data were plotted and fit with a one-site competition curve with fixed minima and maxima using Prism 4 (GraphPad Software, Inc). Ki's were calculated with the Cheng-Prusoff equation using the determined IC5o values and the radioligand Kd. Data were plotted and fit with a one-site competition curve with fixed minima (0) and maxima (100) (Prism4, GraphPad Software, Inc.). […]
The pharmacological profiles of the Group I analogs, 8-deoxy-neoDH and 9-deoxyneoDH, were analyzed initially in radioligand binding experiments with expressed recombinant AMPA and kainate receptor subunits. […]

The target of a further test is T5, GluR6 (Rattus norvegicus, UniProt P42260).
T5 construct: expressed in transfected cells; HEK 293 (patch clamp)
The following applies: Table 1; comparison value of MSVIII-19 (Sanders et al., 2005); read-out: GluR6 binding affinity (displacement of [3H]kainate); cited from earlier work. A general note: Displacement assays read how much labelled ligand stays bound in the presence of the test substance.

T1 sequence (P42260 32-908): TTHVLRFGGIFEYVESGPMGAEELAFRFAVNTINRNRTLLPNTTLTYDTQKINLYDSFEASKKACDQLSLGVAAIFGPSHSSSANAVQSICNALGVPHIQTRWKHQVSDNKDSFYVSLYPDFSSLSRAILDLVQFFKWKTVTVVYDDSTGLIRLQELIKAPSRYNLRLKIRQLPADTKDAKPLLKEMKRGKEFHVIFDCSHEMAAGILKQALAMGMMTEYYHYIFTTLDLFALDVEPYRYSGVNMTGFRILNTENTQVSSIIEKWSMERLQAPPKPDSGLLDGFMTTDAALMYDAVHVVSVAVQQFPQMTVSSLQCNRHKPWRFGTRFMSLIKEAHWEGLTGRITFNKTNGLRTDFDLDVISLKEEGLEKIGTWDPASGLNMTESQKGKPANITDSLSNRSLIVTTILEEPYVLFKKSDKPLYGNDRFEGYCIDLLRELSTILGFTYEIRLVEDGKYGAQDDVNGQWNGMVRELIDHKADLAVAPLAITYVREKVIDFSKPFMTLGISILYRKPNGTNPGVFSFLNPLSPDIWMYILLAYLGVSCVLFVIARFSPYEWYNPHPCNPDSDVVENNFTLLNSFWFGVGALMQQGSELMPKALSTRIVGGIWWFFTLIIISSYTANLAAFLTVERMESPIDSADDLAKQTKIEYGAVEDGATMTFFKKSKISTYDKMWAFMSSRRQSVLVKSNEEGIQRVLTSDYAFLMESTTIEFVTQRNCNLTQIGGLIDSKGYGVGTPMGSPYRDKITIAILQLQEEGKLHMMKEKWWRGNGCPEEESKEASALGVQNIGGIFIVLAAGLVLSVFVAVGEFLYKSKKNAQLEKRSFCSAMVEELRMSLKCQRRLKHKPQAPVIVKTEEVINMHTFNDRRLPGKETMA
T3 sequence (P22756 with tags, fused parts or gaps isoform P22756-2): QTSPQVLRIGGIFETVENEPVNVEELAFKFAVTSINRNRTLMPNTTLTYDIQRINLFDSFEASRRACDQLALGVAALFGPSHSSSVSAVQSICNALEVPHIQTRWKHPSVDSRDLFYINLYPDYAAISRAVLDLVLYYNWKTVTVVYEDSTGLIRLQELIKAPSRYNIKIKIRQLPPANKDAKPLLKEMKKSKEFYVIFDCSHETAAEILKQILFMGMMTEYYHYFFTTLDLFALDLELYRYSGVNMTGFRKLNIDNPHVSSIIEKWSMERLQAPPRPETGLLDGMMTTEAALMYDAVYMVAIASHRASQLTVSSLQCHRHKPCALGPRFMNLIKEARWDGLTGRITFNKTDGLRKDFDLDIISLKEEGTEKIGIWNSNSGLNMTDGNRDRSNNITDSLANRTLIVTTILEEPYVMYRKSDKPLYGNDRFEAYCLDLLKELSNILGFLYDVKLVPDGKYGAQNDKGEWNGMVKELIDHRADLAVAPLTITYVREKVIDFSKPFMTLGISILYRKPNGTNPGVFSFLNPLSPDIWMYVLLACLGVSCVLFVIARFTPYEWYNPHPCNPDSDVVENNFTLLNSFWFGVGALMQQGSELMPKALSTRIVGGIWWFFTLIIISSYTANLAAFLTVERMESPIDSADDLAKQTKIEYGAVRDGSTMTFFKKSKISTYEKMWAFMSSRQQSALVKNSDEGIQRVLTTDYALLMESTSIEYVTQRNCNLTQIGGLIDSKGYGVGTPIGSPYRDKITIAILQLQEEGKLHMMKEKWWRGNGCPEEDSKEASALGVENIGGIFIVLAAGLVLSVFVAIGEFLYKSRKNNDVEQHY
T5 sequence (P42260 32-908): as the sequence (P42260 32-908) above
T4 sequence (P22756 31-905 isoform P22756-2 limits assumed): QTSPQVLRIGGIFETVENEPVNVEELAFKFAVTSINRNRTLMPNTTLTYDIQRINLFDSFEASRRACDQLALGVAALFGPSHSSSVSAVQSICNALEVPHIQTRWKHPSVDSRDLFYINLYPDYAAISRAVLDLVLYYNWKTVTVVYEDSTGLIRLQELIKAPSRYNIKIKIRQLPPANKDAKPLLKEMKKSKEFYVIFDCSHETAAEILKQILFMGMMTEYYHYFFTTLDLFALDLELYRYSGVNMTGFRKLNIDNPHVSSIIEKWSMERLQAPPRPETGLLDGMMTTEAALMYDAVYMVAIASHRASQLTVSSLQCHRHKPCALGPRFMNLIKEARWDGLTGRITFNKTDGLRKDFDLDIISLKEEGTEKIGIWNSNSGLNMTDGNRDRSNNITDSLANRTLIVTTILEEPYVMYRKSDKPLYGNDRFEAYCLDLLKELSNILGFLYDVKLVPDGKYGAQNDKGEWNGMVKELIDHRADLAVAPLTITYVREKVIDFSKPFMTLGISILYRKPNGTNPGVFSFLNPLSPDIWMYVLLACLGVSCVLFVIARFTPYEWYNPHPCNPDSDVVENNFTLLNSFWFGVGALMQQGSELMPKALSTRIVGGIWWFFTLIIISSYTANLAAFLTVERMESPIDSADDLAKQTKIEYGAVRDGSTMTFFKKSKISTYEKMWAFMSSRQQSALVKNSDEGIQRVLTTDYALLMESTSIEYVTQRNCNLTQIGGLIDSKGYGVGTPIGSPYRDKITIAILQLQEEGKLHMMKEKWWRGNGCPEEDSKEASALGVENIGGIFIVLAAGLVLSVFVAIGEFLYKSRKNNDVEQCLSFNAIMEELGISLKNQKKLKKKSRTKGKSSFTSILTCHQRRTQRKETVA
T2 sequence (P19493 22-902 isoform P19493-2 limits assumed): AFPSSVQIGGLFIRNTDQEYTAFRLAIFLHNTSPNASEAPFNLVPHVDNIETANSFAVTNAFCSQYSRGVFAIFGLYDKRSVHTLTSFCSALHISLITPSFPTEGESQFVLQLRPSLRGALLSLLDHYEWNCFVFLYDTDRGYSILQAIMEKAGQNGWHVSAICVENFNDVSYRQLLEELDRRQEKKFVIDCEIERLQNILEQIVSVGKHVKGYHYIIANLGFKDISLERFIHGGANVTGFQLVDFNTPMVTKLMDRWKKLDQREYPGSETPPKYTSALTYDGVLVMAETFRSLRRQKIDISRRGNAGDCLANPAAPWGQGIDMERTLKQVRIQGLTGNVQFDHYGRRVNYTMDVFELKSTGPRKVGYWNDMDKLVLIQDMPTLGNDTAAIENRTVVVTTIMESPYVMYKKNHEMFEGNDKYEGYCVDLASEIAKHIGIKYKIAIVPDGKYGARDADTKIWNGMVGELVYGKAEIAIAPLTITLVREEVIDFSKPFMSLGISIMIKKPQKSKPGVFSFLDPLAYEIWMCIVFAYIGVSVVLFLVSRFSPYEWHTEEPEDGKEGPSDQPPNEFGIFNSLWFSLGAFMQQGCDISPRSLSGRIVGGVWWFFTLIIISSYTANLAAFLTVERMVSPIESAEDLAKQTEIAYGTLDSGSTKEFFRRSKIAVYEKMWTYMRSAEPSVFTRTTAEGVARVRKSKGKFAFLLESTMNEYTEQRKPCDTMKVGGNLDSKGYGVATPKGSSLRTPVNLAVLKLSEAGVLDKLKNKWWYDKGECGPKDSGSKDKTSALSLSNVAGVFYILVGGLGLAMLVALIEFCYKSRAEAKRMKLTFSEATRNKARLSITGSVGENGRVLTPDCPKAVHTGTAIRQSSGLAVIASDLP

For orientation: IC50 means the concentration that gives 50% inhibition. As to `N[C@@H](C[C@@]1(C(=O)O)CC2OCC(O)C(O)C2O1)C(=O)O` (single isomer, unassigned) [2,4-epi-neoDH, 2,4-epi-neodysiherbaine], at GluR6a (30 μM analog), the “recovery of glutamate-evoked currents after analog application, GluR6a” value is “current amplitudes recovered more slowly” and the “reduction of glutamate-induced currents from GluR6a receptors” value is recorded as around 30%. The IC50 on GluR6a (10 mM glutamate in continued presence of analog, read-out: IC50 inhibition of glutamate-evoked currents, GluR6a) turned out to be 74 µM. Besides, the “agonist activity: analog-evoked currents from GluR6a receptors (words)” value (from here on “agonist activity: analog-evoked currents”) on GluR6a is on record as “failed to elicit detectable current; also recorded: antagonist (or possibly a very weak partial agonist); also recorded: fails to activate GluR5 or GluR6 receptors, even at 100 μM”. The “agonist activity: analog-evoked currents” value on GluR6a (listed as 2,4-epineoDH) is “fails to activate”. Besides, the “inhibition of currents from GluR4(i) receptors” value on GluR4(i) AMPA receptors is reported as “failed to inhibit”.

As to `N[C@@H](C[C@@]1(C(=O)O)CC2OCC(O)C(O)C2O1)C(=O)O` (single isomer, unassigned) [4-epi-neoDH, 4-epi-neodysiherbaine], the “ED50, fold lower than that of 2,4-epi-neoDH” value in the test with mice (i.c.v. injection, mice) is above 6 fold. On GluR5, the “agonist or antagonist at GluR5 (electrophysiology)” value is “GluR5/GluR6 antagonist”. Besides, at GluR6a (30 μM analog), the “recovery of glutamate-evoked currents after analog application, GluR6a” value is on record as “only exhibited a transient desensitization”. For the same compound, the “agonist activity: analog-evoked currents” value on GluR6a was “evoked small but detectable currents; also recorded: elicits large currents; also recorded: activates”.

In the case of `NC(CC1(C(=O)O)CC2OCC(O)C(O)C2O1)C(=O)O` (stereo not drawn) [8,9-epi-neoDH, 8,9-epi-neodysiherbaine], the “convulsive behavior” value in the test on mice (high doses) was “fails to elicit convulsive behavior even at high doses”. Further, on GluR5, the “agonist or antagonist at GluR5 (electrophysiology)” value was “GluR5 antagonist”.

Consider `N[C@@H](C[C@]1(C(=O)O)C[C@H]2OC[C@@H](O)C[C@H]2O1)C(=O)O` [8-deoxy-neoDH], for which, at GluR5-2b, the Ki was found to be 0.002 µM. The “agonist or antagonist at GluR5 (electrophysiology)” value on GluR5 was “GluR5 agonists”.

On to `NC(CC1(C(=O)O)CC2OCC(O)C(O)C2O1)C(=O)O` (stereo not drawn) [8-epi-neoDH, 8-epi-neodysiherbaine], for which the “agonist or antagonist at GluR5 (electrophysiology)” value at GluR5 was “GluR5 agonist”.

With `N[C@@H](C[C@]1(C(=O)O)C[C@H]2OCC[C@@H](O)[C@H]2O1)C(=O)O` [9-deoxy-neoDH], the “agonist or antagonist at GluR5 (electrophysiology)” value on GluR5 was “GluR5 agonists”.

As for `N[C@@H](C[C@]1(C(=O)O)C[C@H]2OCCC[C@H]2O1)C(=O)O` [MSVIII-19, 8,9-dideoxy-neoDH], the Ki on GluR6 was above 100 µM.
